From patent publication US7179825B2, “Retinoic acid mimetic anilides” (Janssen Pharmaceutica N.V., priority 1997, dated 2007)

How the values were obtained:
Ovariectomized rats = test: Vaginal keratinization test on ovariectomized rats (Example C.2); assay type: in vivo; conditions: estradiol undecylate induced keratinization, per os once daily on days 1-3, active dose = 50% of rats show complete suppression
Procedure, shortened: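 Ovariectomized rats given s.c. estradiol undecylate (100 μg per 100 g body weight in sesame oil), then oral compound once daily on days 1-3 (vehicle PEG 200). Vaginas assessed histologically one day after last dose; lowest active dose (mg/kg) is the dose giving complete keratinization suppression in 50% of rats.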

[1] = system: metabolism of retinoic acid in human breast cancer cells; test: Inhibition of retinoic acid (RA) metabolism (Example C.1); assay type: cell-based; conditions: MCF-7 human breast cancer cells, 3H-RA as substrate; concentration needed to reduce the amount of metabolites to 50% of the control
Procedure, shortened: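 MCF-7 cells, pre-stimulated with RA the day before, incubated with ³H-RA substrate and test compound in 1% DMSO. Polar ³H-metabolites separated from unmetabolized RA and counted by scintillation. IC50 is the concentration cutting metabolite formation to 50% of control, with blank run alongside.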

Compound | IC50 [1] [nM] | LAD (lowest active dose) (Ovariectomized rats) [mg/kg]
COc1ccc(CC(=O)Nc2ccc(C(C(C)N3CCN(C)CC3)n3ccnc3)cc2)cc1OC.O (single isomer, unassigned) [Compound 412] | 3.99 | >2.50
CCCN(C)C(C)C(c1ccc(NC(=O)Cc2ccc(OC)c(OC)c2)cc1)n1ccnc1 (single isomer, unassigned) [Compound 413] | 5.27 | 5.00
C/C(=C\c1ccccc1)C(=O)Nc1ccc(C(C(C)C)n2ccnc2)cc1 (single isomer, unassigned) [Compound 458] | 3.22 | 5.00
CC(=Cc1ccccc1)C(=O)Nc1ccc(C(C(C)C)n2ccnc2)cc1 (single isomer, unassigned) [Compound 459] | 17.7 | 20.00
CC(=Cc1ccccc1)C(=O)Nc1ccc(C(C(C)Sc2ccccc2)n2ccnc2)cc1 (single isomer, unassigned) [Compound 484] | 3.43 | >5.00
C/C(=C\c1ccccc1)C(=O)Nc1ccc(C(C(C)c2ccccc2)n2ccnc2)cc1 (single isomer, unassigned) [Compound 490] | > 100 | 2.50
CCN(CC)C(C)C(c1ccc(NC(=O)Cc2ccc(OC)c(OC)c2)cc1)n1cncn1 (single isomer, unassigned) [Compound 649] | 7.32 | 5.00
CCC(CC)C(c1ccc(NC(=O)C(O)c2ccc(Cl)cc2)cc1)n1cncn1 (stereo not drawn) [Compound 4] | 2.11 | 0.60
CCC(CC)C(c1ccc(NC(=O)CCCc2ccc(OC)c(OC)c2)cc1)n1cncn1 (stereo not drawn) [Compound 8] | 0.0937 | >2.50
CCC(CC)C(c1ccc(NC(=O)C2CCc3ccccc3O2)cc1)n1ccnc1 (stereo not drawn) [Compound 29] | 8.12 | 5.00
CCC(CC)C(c1ccc(NC(=O)C(O)c2ccc(OC)c(OC)c2)cc1)n1ccnc1 (stereo not drawn) [Compound 56] | 0.0251 | >5.00
CCC(CC)C(c1ccc(NC(=O)Cc2ccc(OCc3ccncc3)cc2)cc1)n1ccnc1 (stereo not drawn) [Compound 127] | 0.0285 | >2.50
CCOc1cc(CC(=O)Nc2ccc(C(C(CC)CC)n3ccnc3)cc2)ccc1OCc1ccccc1 (stereo not drawn) [Compound 128] | 0.0181 | 5.00
CCC(CC)C(c1ccc(NC(=O)Cc2ccc(O)cc2C)cc1)n1ccnc1 (stereo not drawn) [Compound 129] | 0.0236 | 2.50
CCC(CC)C(c1ccc(NC(=O)Cc2ccc(OCc3cccnc3)cc2)cc1)n1ccnc1 (stereo not drawn) [Compound 130] | 0.0109 | 5.00
CC(C)C(c1ccc(NC(=O)Cc2ccc(Cl)cc2)cc1)n1cncn1 (stereo not drawn) [Compound 131] | 4.1 | 5.00
CC(C)C(c1ccc(NC(=O)Cc2ccc(F)cc2)cc1)n1cncn1 (stereo not drawn) [Compound 132] | 4.49 | 5.00
CC(C)C(c1ccc(NC(=O)Cc2ccc(O)cc2)cc1)n1cncn1 (stereo not drawn) [Compound 134] | 2.98 | 5.00
CC(C)C(c1ccc(NC(=O)Cc2cccc(O)c2)cc1)n1cncn1 (stereo not drawn) [Compound 137] | 1.85 | >5.00
COc1cc(CC(=O)Nc2ccc(C(C(C)C)n3cncn3)cc2)ccc1O (stereo not drawn) [Compound 138] | 6.38 | >5.00
COc1cc(CC(=O)Nc2ccc(C(C(C)C)n3ccnc3)cc2)cc(OC)c1OC (stereo not drawn) [Compound 139] | 1.75 | 10.00
COc1cc(CC(=O)Nc2ccc(C(C(C)C)n3ccnc3)cc2)ccc1O (stereo not drawn) [Compound 142] | 31.1 | 5.00
CC(C)C(c1ccc(NC(=O)Cc2ccc(N)cc2)cc1)n1ccnc1 (stereo not drawn) [Compound 152] | 5.18 | >5.00
C/C(=C\c1ccc(C(F)(F)F)cc1)C(=O)Nc1ccc(C(C(C)C)n2cncn2)cc1 (stereo not drawn) [Compound 159] | > 100 | >10.00

More lines, main results first:

IC50 [1] [nM] | Compound | LAD (lowest active dose) (Ovariectomized rats) [mg/kg]
0.729 | CCN(CC)C(C)C(c1ccc(NC(=O)Cc2ccc(OC)c(OC)c2)cc1)n1ccnc1 (single isomer, unassigned) [Compound 383] | >2.50
6.75 | CCCCCC(C)C(c1ccc(NC(=O)Cc2ccc(OC)c(OC)c2)cc1)n1ccnc1 (single isomer, unassigned) [Compound 385] | >2.50
0.0567 | COc1ccc(CC(=O)Nc2ccc(C(C(C)CN3CCCCC3)n3ccnc3)cc2)cc1OC (single isomer, unassigned) [Compound 389] | >2.50
0.955 | CCC(C(c1ccc(NC(=O)Cc2ccc(OC)c(OC)c2)cc1)n1ccnc1)N(C)C (single isomer, unassigned) [Compound 393] | 5.00
3.68 | COCC(C)C(c1ccc(NC(=O)Cc2ccc(OC)c(OC)c2)cc1)n1ccnc1 (single isomer, unassigned) [Compound 405] | 5.00
0.367 | CCN(C)C(C)C(c1ccc(NC(=O)Cc2ccc(OC)c(OC)c2)cc1)n1ccnc1 (single isomer, unassigned) [Compound 416] | >5.00
1.95 | CCCC(C)C(c1ccc(NC(=O)/C(C)=C/c2ccccc2)cc1)n1ccnc1 (single isomer, unassigned) [Compound 482] | 10.00
19.8 | CC(=Cc1ccccc1)C(=O)Nc1ccc(C(C(C)Sc2ccccc2)n2ccnc2)cc1 (single isomer, unassigned) [Compound 483] | >5.00
> 100 | CC(=Cc1ccccc1)C(=O)Nc1ccc(C(C(C)c2ccccc2)n2ccnc2)cc1 (single isomer, unassigned) [Compound 489] | 2.50
4.07 | CCCCCC(CC)C(c1ccc(NC(=O)C(C)=Cc2ccccc2)cc1)n1ccnc1 (single isomer, unassigned) [Compound 492] | >2.50
1.32 | CCC(C(c1ccc(NC(C)=O)cc1)n1ccnc1)N(C)C (single isomer, unassigned) [Compound 558] | >5.00
8.02 | CCC(C(c1ccc(NC(C)=O)cc1)n1cncn1)N(C)C (single isomer, unassigned) [Compound 645] | >5.00
3.07 | CCC(C(c1ccc(NC(=O)Cc2ccc(OC)c(OC)c2)cc1)n1cncn1)N(C)C (single isomer, unassigned) [Compound 646] | 5.00
1.26 | CCC(CC)C(c1ccc(NC(=O)Cc2ccc(C)c(OC)c2)cc1)n1cncn1 (single isomer, unassigned) [Compound 782] | 2.50
39.8 | CCC(CC)C(c1ccc(NC(=O)Cc2ccc(C)c(OC)c2)cc1)n1cncn1 (single isomer, unassigned) [Compound 783] | 5.00
0.0357 | CCC(CC)C(c1ccc(NC(=O)Cc2ccc3nc(N)sc3c2)cc1)n1cncn1 (stereo not drawn) [Compound 13] | >2.50
1.03 | CCC(CC)C(c1ccc(NC(=O)C2Oc3ccccc3O2)cc1)n1ccnc1 (stereo not drawn) [Compound 34] | 2.50
1.98 | CCC(CC)C(c1ccc(NC(=O)Cc2ccc(-c3ccccc3)cc2)cc1)n1ccnc1 (stereo not drawn) [Compound 41] | 2.50
7.44 | CCC(CC)C(c1ccc(NC(=O)C(SC)c2ccccc2)cc1)n1ccnc1 (stereo not drawn) [Compound 50] | 2.50
4.56 | Cc1ccc(CC(=O)Nc2ccc(C(C(C)C)n3cncn3)cc2)cc1 (stereo not drawn) [Compound 133] | >5.00
1.43 | CCOc1ccc(CC(=O)Nc2ccc(C(C(C)C)n3cncn3)cc2)cc1 (stereo not drawn) [Compound 135] | 2.50
4.83 | COc1ccc(CC(=O)Nc2ccc(C(C(C)C)n3cncn3)cc2)cc1OC.O (stereo not drawn) [Compound 136] | 5.00
21.5 | COc1ccc(CC(=O)Nc2ccc(C(C(C)C)n3ccnc3)cc2)cc1OC (stereo not drawn) [Compound 140] | 5.00
1.31 | CC(C)C(c1ccc(NC(=O)Cc2ccc(Cl)cc2Cl)cc1)n1ccnc1 (stereo not drawn) [Compound 141] | >10.00
4.08 | CC(C)C(c1ccc(NC(=O)Cc2ccc(Cl)c(Cl)c2)cc1)n1ccnc1 (stereo not drawn) [Compound 143] | 10.00
1.86 | CC(C)C(c1ccc(NC(=O)Cc2ccc(N)c(I)c2)cc1)n1ccnc1 (stereo not drawn) [Compound 148] | >5.00
2.11 | CC(C)C(c1ccc(NC(=O)Cc2ccc([N+](=O)[O-])cc2)cc1)n1ccnc1 (stereo not drawn) [Compound 151] | 5.00
> 100 | C/C(=C\c1ccncc1)C(=O)Nc1ccc(C(C(C)C)n2cncn2)cc1 (stereo not drawn) [Compound 158] | >10.00
1.87 | CC(C)C(c1ccc(NC(=O)C2Oc3ccccc3O2)cc1)n1cncn1 (stereo not drawn) [Compound 161] | >2.50
2.88 | CC(C)C(c1ccc(NC(=O)CC2COc3ccccc3O2)cc1)n1cncn1 (stereo not drawn) [Compound 162] | >5.00
